{"source": "patent US9642941B2", "about": "“Implantable modular hydrogel for salivary gland restoration” (WILLIAM MARSH RICE UNIVERSITY, priority 2011, dated 2017)", "key": {"[1]": {"test_system": "β adrenergic receptors", "test": "Exocytic granule production and α-amylase staining in salivary acinar-like cells on/in HA hydrogels", "assay_type": "cell-based, human", "details": "50 μM", "procedure": "Cells seeded (1×10^5 cells/gel) on/in hydrogels were treated with varying concentrations (10 μM to 100 μM) of isoproterenol hydrochloride (Santa Cruz Biotechnology) and norepinephrine hydrochloride (Sigma), each of which induce granule production and exocytosis, for various time points from 15 min-2 h. After treatment, culture medium was removed and cells were fixed immediately with 100% methanol and stained with α-amylase for microscopic analysis. Functionality of salivary acinar-like cells was assessed by response to neurotransmitter agonists. Norepinephrine binding to the β adrenergic receptors activates the protein secretion pathway. In this study, the sympathomimetic β adrenergic agonists, norepinephrine and isoproterenol, were used to stimulate protein production and exocytosis. Salivary acinar-like cells cultured on/in hydrogels were treated with 50 μM isoproterenol for 15 min to 1 hr. After treatment, cells were immediately fixed and stained, then analyzed for granule formation and α-amylase expression. FIGS. 21-25 quantify the extent of amylase response, using the intensity of fluorescence staining as a surrogate. […] Exocytosing granules stained in red for α-amylase are seen budding out from the cell membrane in FIG. 21C, E, F. Granule production has been quantified in FIG. 26. Upon stimulation, acini-like structures in 3D also secreted α-amylase into the hydrogel (FIG. 21E, F). α-Amylase staining is quantified in FIGS. 23-25."}, "[2]": {"target": "T1, M3 muscarinic receptors (Homo sapiens, UniProt P20309)", "T1 construct": "Parotid gland tissue was collected from patients aged 40-55 years undergoing surgery; endogenous in cells; host or cells: primary acinar-like cells (passage 3-4) from patients' parotid gland tissue, on 2.5D or in 3D HA hydrogels", "T1 sequence (P20309 whole entry)": "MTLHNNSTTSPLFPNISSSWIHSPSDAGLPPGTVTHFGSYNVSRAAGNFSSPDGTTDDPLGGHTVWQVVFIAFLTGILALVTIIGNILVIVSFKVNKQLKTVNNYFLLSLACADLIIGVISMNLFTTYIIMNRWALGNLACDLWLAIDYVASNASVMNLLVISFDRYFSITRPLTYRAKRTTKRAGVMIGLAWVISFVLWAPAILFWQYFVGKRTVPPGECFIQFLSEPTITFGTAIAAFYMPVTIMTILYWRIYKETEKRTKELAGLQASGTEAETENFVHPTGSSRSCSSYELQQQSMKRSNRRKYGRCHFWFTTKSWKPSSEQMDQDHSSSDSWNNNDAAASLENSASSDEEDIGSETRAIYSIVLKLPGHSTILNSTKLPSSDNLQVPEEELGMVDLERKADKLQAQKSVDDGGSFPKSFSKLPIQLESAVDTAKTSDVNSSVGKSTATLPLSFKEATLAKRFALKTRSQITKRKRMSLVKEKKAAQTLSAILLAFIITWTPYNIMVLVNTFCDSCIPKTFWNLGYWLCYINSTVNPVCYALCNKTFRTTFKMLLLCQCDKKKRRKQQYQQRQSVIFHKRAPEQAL", "test": "Intracellular calcium release (Fluo-4) in acini-like structures on 2.5D / in 3D HA hydrogels treated with acetylcholine", "assay_type": "cell-based", "procedure": "Intracellular calcium [Cai] release studies utilized the calcium indicator dye, Fluo-4 (Invitrogen). Cells were seeded at 1×10^5 cells/gel in cell culture inserts as before. Cells on 2.5D and in 3D hydrogels were cultured for 12 days. Fluo-4 was suspended in 0.8% (w/v) pluronic acid and mixed with 8 mL of 1× Hanks' balanced salt solution (HBSS) without calcium. Cell-seeded hydrogels were incubated with Fluo-4 suspended in pluronic acid for 30 min at 37° C. After 30 min, cells were washed twice with 1×HBSS, and incubated for 30 min in HBSS. After loading and recovery, hydrogels were imaged using a Zeiss LSM 5-live high-speed confocal microscope. Baseline fluorescence was established for 30 sec at 488 nm. Cell-seeded hydrogels then were treated with various concentrations (ranging from 50 μM-500 μM) of the muscarinic agonist acetylcholine chloride. 2.5D hydrogels were flipped so that cells were on the bottom of the chamber slides. 50 μL of the agonist was added to the bottom of the chamber containing 50 μL medium. 3D hydrogels were suspended in 100 μL of medium and treated with 100 μL of agonist. Resulting increases in Cai levels were captured in a series of image scans and by graph plot.\nTo stimulate fluid secretion, salivary acinar-like cells were treated with acetylcholine. Addition of 50 μM acetylcholine induced a robust calcium response in self-assembling acini-like structures cultured on 2.5D hydrogels (FIG. 27A). Acini-like structures on hydrogels were imaged without saline buffer to minimize movement of hydrogels in the liquid. The calcium response peak seen at ˜5 min can be attributed to the diffusion time needed by the neurotransmitter to pass through the hydrogel to the cells. Treatment with 100 μM acetylcholine produced calcium oscillations lasting over 20 min in multiple cells within a self-assembled acinus-like structure (FIG. 27B). Oscillations from different structures varied in intensity. […] Experiments were performed three times with each agonist concentration, on separate hydrogel cultures. Data were recorded from 3-4 acini-like structures each time. […] Positive controls used a hypotonic solution to induce a calcium response.\nTreatment with 50 μM acetylcholine induced calcium oscillations that lasted over 20 minutes in spheroid structures encapsulated in 3D hydrogels (FIG. 27D). […] Compared to the response seen among 2.5D cultures, the increase in [Ca^2+] was quicker in 3D, where cells responded to acetylcholine treatment within 30 seconds while cells in 2.5D took nearly 300 seconds. […] Thus, cell response to acetylcholine agonist in 3D was faster, more intense, and more prolonged than cell response in 2.5D."}, "[3]": {"target": "HP", "details": "read-out: Dissociation constant (Kd) of complex with HP; cited from earlier work"}, "[4]": {"test_system": "spheroids in 3D HA hydrogels", "test": "FGF7 treatment of spheroids in 3D HA hydrogels", "assay_type": "cell-based, human", "details": "25 ng/mL FGF7 daily for 10 d and 12 d", "procedure": "FIG. 14 is a picture depicting organized spheroids. […] (a) Untreated cells at 20 d culture. (b,c) Spheroids treated with 25 ng/mL FGF7 daily for (b) 10 d and (c) 12 d.\nFunctional neotissue glands must advance beyond spherical lumen to initiate directional delivery of secretory products and recreate the differentiated roles of fluid producing acinar and fluid resorbing ductal cells. Recent work identified the specific roles of FGF7 and FGF10 in inducing ductal elongation and branching, respectively. These roles are tied to the cells' perceived gradients of each GF from a point source, defined by diffusion through ECM and controlled by their binding to HS (in Pln and other proteoglycans). […] When delivered through media, FGF7 may induce overall larger spheroids (as expected, when FGF7 is not delivered from a directional point source). […] HGPs are an optimal mechanism for directional controlled delivery of FGF7 and FGF10."}}, "note": "Where a name gives a salt, the structure may show the parent alone."}
{"molecule": "CC(C)NCC(O)c1ccc(O)c(O)c1", "note": "(stereo not drawn) [isoproterenol, isoproterenol hydrochloride]", "values": [{"measurement": "α-Amylase localisation", "setting": "[1]; 15 min", "result": "α-amylase near the membrane periphery"}, {"measurement": "Granule formation and α-amylase staining", "setting": "[1]; 1 h, 2.5D and 3D", "result": "presence of granules and robust α-amylase staining"}]}
{"molecule": "CC(=O)OCC[N+](C)(C)C.[Cl-]", "note": "[ACh, acetylcholine chloride]", "values": [{"measurement": "Average Peak Height (Intensity)", "setting": "[2]; 2.5D hydrogel, 50 μM ACh", "result": "58 ± 11"}, {"measurement": "Average Peak Length", "setting": "[2]; 2.5D hydrogel, 50 μM ACh", "result": "42 ± 21", "unit": "s"}, {"measurement": "Percent Responders", "setting": "[2]; 2.5D hydrogel, 50 μM ACh", "result": 33, "unit": "%"}, {"measurement": "Average Peak Height (Intensity)", "setting": "[2]; 2.5D hydrogel, 100 μM ACh", "result": "10 ± 3"}, {"measurement": "Average Peak Length", "setting": "[2]; 2.5D hydrogel, 100 μM ACh", "result": "46 ± 9", "unit": "s"}, {"measurement": "Percent Responders", "setting": "[2]; 2.5D hydrogel, 100 μM ACh", "result": 22, "unit": "%"}, {"measurement": "Time of calcium response peak", "setting": "[2]; 2.5D hydrogels, 50 μM", "result": "~5", "unit": "min"}, {"measurement": "Duration of calcium oscillations", "setting": "[2]; 2.5D hydrogels, 100 μM", "result": "over 20 min"}, {"measurement": "Calcium oscillations", "setting": "[2]; 3D cultures, 100 μM", "result": "induced similar oscillations"}, {"measurement": "Average Peak Height (Intensity)", "setting": "[2]; 3D hydrogel, 50 μM ACh", "result": "39 ± 6"}, {"measurement": "Average Peak Length", "setting": "[2]; 3D hydrogel, 50 μM ACh", "result": "164 ± 8", "unit": "s"}, {"measurement": "Percent Responders", "setting": "[2]; 3D hydrogel, 50 μM ACh", "result": 43, "unit": "%"}, {"measurement": "Average Peak Height (Intensity)", "setting": "[2]; 3D hydrogel, 100 μM ACh", "result": "14 ± 8"}, {"measurement": "Average Peak Length", "setting": "[2]; 3D hydrogel, 100 μM ACh", "result": "180 ± 34", "unit": "s"}, {"measurement": "Percent Responders", "setting": "[2]; 3D hydrogel, 100 μM ACh", "result": 16, "unit": "%"}, {"measurement": "Duration of calcium oscillations", "setting": "[2]; 3D hydrogels, 50 μM", "result": "over 20 minutes"}, {"measurement": "Time until cells responded with increase in [Ca2+]", "setting": "[2]; cells in 2.5D", "result": "~300", "unit": "s"}, {"measurement": "Time until cells responded with increase in [Ca2+]", "setting": "[2]; cells in 3D", "result": "≤ 30", "unit": "s"}]}
{"molecule": "NC[C@H](O)c1ccc(O)c(O)c1", "note": "[norepinephrine, norepinephrine hydrochloride]", "values": [{"measurement": "Secretory granules", "setting": "[1]; 2.5D and 3D", "result": "displayed multiple secretory granules"}]}
{"molecule": "VEGF", "values": [{"measurement": "Kd", "setting": "[3]", "result": 0.165, "unit": "µM"}]}
{"molecule": "FGF7: heparin-binding growth factor (protein, UniProt P21781 32-194, looked up) Fibroblast growth factor 7: CNDMTPEQMATNVNCSSPERHTRSYDYMEGGDIRVRRLFCRTQWYLRIDKRGKVKGTQEMKNNYNIMEIRTVAVGIVAIKGVESEFYLAMNKEGKLYAKKECNEDCNFKELILENHYNTYASAKWTHNGGEMFVALNQKGIPVRGKKTKKEQKTAHFLPMAIT", "values": [{"measurement": "Kd", "setting": "[3]", "result": "0.03 to 0.049", "unit": "µM"}, {"measurement": "Spheroid size", "setting": "[4]", "result": "increases spheroid size"}]}
